In patent publication US8092816B2, “Insecticidal compositions for control of general household pests” (priority 2004, dated 2012):

How the values were obtained:
Format in all cases: in vivo
German cockroach = assay: Example 2: German cockroach knockdown and mortality, bifenthrin and imidacloprid
From the text: (§1) The following examples further illustrate the present invention, but, of course, should not be construed as in any way limiting its scope. The examples set forth certain biological data illustrating the efficacy of the compositions of the present invention in controlling general household pests. Each example embodies a separate test wherein the pests were randomly selected from a population at a random age. As a result, from example to example, the ages of the pests can be very different. This age difference potentially translates to different baselines for each example. Therefore, data should only be compared within the example and not from example to example due to the differences in age of the pests from example to example. Unless otherwise indicated, all parts, percentages, and the like are by weight. The spray chamber used in the examples was approximately 76 inches tall, 73 inches long and 31 inches deep with an adjustable shelf (approximately 22 inches deep) and a movable spray nozzle. The spray chambers were calibrated to deliver a volume of approximately 1 gallon of liquid per 1000 square feet of area at about 14 pounds per square inch of pressure. A DeVilbiss hand held sprayer (Atomizer model 152) manufactured by DeVilbiss located in Glendale Heights, Ill. was used in testing house flies and mosquitoes. The DeVilbiss was used to apply approximately 3-5 milliliters of product at about 10 pounds per square inch.
The compositions of the present invention were tested for German cockroach activity in the following manner:
Test compositions made up of TALSTARONE® MULTI-INSECTICIDE and a wettable powder of imidacloprid (MERIT) in distilled water were prepared that provided appropriate rates of application of combinations of bifenthrin and imidacloprid, as well as bifenthrin and imidacloprid alone.
(§2) The spray chamber was then calibrated to deliver the treatment solution at the desired volume and pressure over the desired area on the chamber shelf. Spray chamber shelf height was adjusted to approximately 18 inches from the spray tip. The shelf was then covered with aluminum foil and the center of the shelf from front-to-back and end-to-end was determined. A desired number of 4.0″ sieve circles were marked on the aluminum foil with a permanent marker. The inside of a desired number of PVC rings were coated with a petroleum jelly/mineral oil mixture (1:2 ratio). The PVC rings were place on the sieve circles. 10 male German cockroaches were placed inside each PVC ring. The sprayer was activated and the test compound was applied to each PVC ring interior. German cockroach knockdown and mortality were measured.

American cockroach [1] = assay: Example 9: American cockroach knockdown and mortality, bifenthrin and thiamethoxam
From the text: as §1
(§3) The compositions of the present invention were tested for American cockroach activity in the following manner:
(§4) Test compositions made up of TALSTARONE® MULTI-INSECTICIDE and a water dispersible granular of thiamethoxam (CENTRIC) in distilled water were prepared that provided appropriate rates of application of combinations of bifenthrin and thiamethoxam, as well as bifenthrin and thiamethoxam alone.
as §2, with “American” for “German”

Oriental cockroach [2] = assay: Example 10: Oriental cockroach knockdown and mortality, bifenthrin and thiamethoxam
From the text: as §1
(§5) The compositions of the present invention were tested for Oriental cockroach activity in the following manner:
as §4
as §2, with “Oriental” for “German”

American cockroach [3] = assay: Example 14: American cockroach knockdown and mortality, bifenthrin and clothianidin
From the text: as §1, §3
(§6) Test compositions made up of TALSTARONE® MULTI-INSECTICIDE and a 16% a.i. water dispersible granular of clothianidin in distilled water were prepared that provided appropriate rates of application of combinations of bifenthrin and clothianidin, as well as bifenthrin and clothianidin alone.
as §2, with “American” for “German”

Oriental cockroach [4] = assay: Example 15: Oriental cockroach knockdown and mortality, bifenthrin and clothianidin
From the text: as §1, §5, §6
as §2, with “Oriental” for “German”

[5] = rate of appln. 10 PPM (0.001% by weight)
[6] = rate of appln. 50 PPM (0.005% by weight)

Cc1c(COC(=O)[C@@H]2[C@H](/C=C(\Cl)C(F)(F)F)C2(C)C)cccc1-c1ccccc1 (racemic) [A, 2-methylbiphenyl-3-ylmethyl (Z)-(1RS)-cis-3-(2-chloro-3,3,3-trifluoroprop-1-enyl)-2,2-dimethylcyclopropanecarboxylate]
5%: Mortality Rate @ 1 day (American cockroach [1]; 10 PPM, 0.001% by weight) | Knockdown Rate @ 10 minute (American cockroach [3]; [6]) | Knockdown Rate @ 30 minute (American cockroach [3]; [6])
20%: Mortality Rate @ 1 day (Oriental cockroach [4]; [6])
100%: Mortality Rate @ 60 minutes (German cockroach; 200 PPM, 0.02% by weight) | Mortality Rate @ 120 minutes (German cockroach; 200 PPM, 0.02% by weight) | Mortality Rate @ 1 day (German cockroach; 200 PPM, 0.02% by weight) | Mortality Rate @ 60 minutes (German cockroach; 600 PPM, 0.06% by weight) | Mortality Rate @ 120 minutes (German cockroach; 600 PPM, 0.06% by weight) | Mortality Rate @ 1 day (German cockroach; 600 PPM, 0.06% by weight)
45%: Knockdown Rate @ 30 minutes (German cockroach; 200 PPM, 0.02% by weight) | Mortality Rate @ 1 day (Oriental cockroach [2]; 50 PPM, 0.005% by weight)
3%: Knockdown Rate @ 15 minute (German cockroach; 200 PPM, 0.02% by weight) | Mortality Rate @ 2 days (Oriental cockroach [4]; [5])
60%: Knockdown Rate @ 30 minutes (German cockroach; 600 PPM, 0.06% by weight)
23%: Mortality Rate @ 2 days (Oriental cockroach [4]; [6])
35%: Mortality Rate @ 4 hours (American cockroach [3]; [6])
8%: Knockdown Rate @ 15 minute (German cockroach; 600 PPM, 0.06% by weight)
55%: Mortality Rate @ 2 days (American cockroach [3]; [6])
0%: Knockdown Rate @ 10 minute (German cockroach; 200 PPM, 0.02% by weight) | Knockdown Rate @ 10 minute (German cockroach; 600 PPM, 0.06% by weight) | Knockdown Rate @ 15 minute (American cockroach [1]; 10 PPM, 0.001% by weight) | Knockdown Rate @ 30 minute (American cockroach [1]; 10 PPM, 0.001% by weight) | Mortality Rate @ 60 minutes (American cockroach [1]; 10 PPM, 0.001% by weight) | Mortality Rate @ 120 minutes (American cockroach [1]; 10 PPM, 0.001% by weight) | Mortality Rate @ 4 hours (American cockroach [1]; 10 PPM, 0.001% by weight) | Knockdown Rate @ 15 minute (American cockroach [1]; 50 PPM, 0.005% by weight) | Knockdown Rate @ 30 minute (American cockroach [1]; 50 PPM, 0.005% by weight) | Mortality Rate @ 60 minutes (American cockroach [1]; 50 PPM, 0.005% by weight) | Mortality Rate @ 120 minutes (American cockroach [1]; 50 PPM, 0.005% by weight) | Mortality Rate @ 4 hours (American cockroach [1]; 50 PPM, 0.005% by weight) | Knockdown Rate @ 15 minute (Oriental cockroach [2]; 10 PPM, 0.001% by weight) | Knockdown Rate @ 30 minute (Oriental cockroach [2]; 10 PPM, 0.001% by weight) | Mortality Rate @ 60 minutes (Oriental cockroach [2]; 10 PPM, 0.001% by weight) | Mortality Rate @ 120 minutes (Oriental cockroach [2]; 10 PPM, 0.001% by weight) | Mortality Rate @ 4 hours (Oriental cockroach [2]; 10 PPM, 0.001% by weight) | Mortality Rate @ 1 day (Oriental cockroach [2]; 10 PPM, 0.001% by weight) | Knockdown Rate @ 15 minute (Oriental cockroach [2]; 50 PPM, 0.005% by weight) | Knockdown Rate @ 30 minute (Oriental cockroach [2]; 50 PPM, 0.005% by weight) | Mortality Rate @ 60 minutes (Oriental cockroach [2]; 50 PPM, 0.005% by weight) | Mortality Rate @ 120 minutes (Oriental cockroach [2]; 50 PPM, 0.005% by weight) | Mortality Rate @ 4 hours (Oriental cockroach [2]; 50 PPM, 0.005% by weight) | Knockdown Rate @ 10 minute (American cockroach [3]; [5]) | Knockdown Rate @ 15 minute (American cockroach [3]; [5]) | Knockdown Rate @ 30 minute (American cockroach [3]; [5]) | Mortality Rate @ 60 minute (American cockroach [3]; [5]) | Mortality Rate @ 120 minutes (American cockroach [3]; [5]) | Mortality Rate @ 4 hours (American cockroach [3]; [5]) | Mortality Rate @ 60 minute (American cockroach [3]; [6]) | Mortality Rate @ 120 minutes (American cockroach [3]; [6]) | Knockdown Rate @ 10 minute (Oriental cockroach [4]; [5]) | Knockdown Rate @ 15 minute (Oriental cockroach [4]; [5]) | Knockdown Rate @ 30 minute (Oriental cockroach [4]; [5]) | Mortality Rate @ 60 minute (Oriental cockroach [4]; [5]) | Mortality Rate @ 120 minute (Oriental cockroach [4]; [5]) | Mortality Rate @ 4 hours (Oriental cockroach [4]; [5]) | Mortality Rate @ 1 day (Oriental cockroach [4]; [5]) | Knockdown Rate @ 10 minute (Oriental cockroach [4]; [6]) | Knockdown Rate @ 15 minute (Oriental cockroach [4]; [6]) | Knockdown Rate @ 30 minute (Oriental cockroach [4]; [6]) | Mortality Rate @ 60 minute (Oriental cockroach [4]; [6]) | Mortality Rate @ 120 minute (Oriental cockroach [4]; [6])
30%: Mortality Rate @ 1 day (American cockroach [1]; 50 PPM, 0.005% by weight) | Mortality Rate @ 2 days (American cockroach [3]; [5])
40%: Mortality Rate @ 1 day (American cockroach [3]; [6])
10%: Mortality Rate @ 1 day (American cockroach [3]; [5]) | Knockdown Rate @ 15 minute (American cockroach [3]; [6]) | Mortality Rate @ 4 hours (Oriental cockroach [4]; [6])
